Legend:
NCI-H460 [1] = experiment: Cytotoxicity against human H460 cells assessed as cell viability after 72 hrs by calorimetric assay; type: functional, cell-based; conditions: NCI-H460, 72 h
NCI-H460 [2] = experiment: Potentiation of gamma-irradiation-induced cytotoxicity against human H460 cells assessed as dose enhancement ratio at 50 uM administered 24 hrs before 2-8 Gy irradiation measured after 12 days; type: functional
NCI-H460 [3] = experiment: Potentiation of gamma-irradiation-induced cytotoxicity against human H460 cells assessed as dose enhancement ratio at 300 uM administered 24 hrs before 2-8 Gy irradiation measured after 12 days; type: functional

Q: Which IC50 (NCI-H460 [1]) does the source give for `C[Se]Cc1cn([C@H]2C[C@H](O)[C@@H](CO)O2)c(=O)[nH]c1=O` here?
A: Its IC50 is 100 µM.

Q: And the Ratio (NCI-H460 [2])?
A: Its Ratio is 1.2.

Q: `O=c1[nH]c(=O)n([C@H]2C[C@H](O)[C@@H](CO)O2)cc1C[Se]c1ccccc1` was tested. Which Ratio (NCI-H460 [3]) did it give?
A: Its Ratio is 1.12.

Q: And the IC50 (NCI-H460 [1])?
A: Its IC50 is 500 µM.

— ChEMBL document CHEMBL1667833, “Potent radiosensitizing agents: 5-methylselenyl- and 5-phenylselenyl-methyl-2'-deoxyuridine” (Bioorg Med Chem Lett, 2011)
